From the supplement of paper PMC10307832

Compound: Cn1cc(-c2cnn3c(N)c(Br)c([C@@H]4CCCNC4)nc23)cn1
Assay: relative viability (nuclei count vs DMSO), 5 days (fraction); higher = more cells survive
Outline: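 On vehicle-anchored 1536-well plates, lung cancer cell lines held overnight at 37 °C were pinned with five library-drug doses (not always all listed) spaced by √10. With no medium change over 5 days, they were then fixed, permeabilised and Hoechst-stained in one step and imaged at 4×. MetaXpress counted nuclei, and viability is the median across plates of treated-well over vehicle-well nuclei. Acceptance needed control CV below 25% and at least one doubling.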

| Cell Line | relative viability (0.05 µM) | relative viability (0.1581 µM) | relative viability (0.5 µM) | relative viability (1.581 µM) | relative viability (5 µM) |
| --- | --- | --- | --- | --- | --- |
| COR-L 105 | 0.85 | 0.85 | 0.843 | 0.705 | 0.656 |
| LK-2 | 1.04 | 0.951 | 0.836 | 0.729 | 0.711 |
| NCI-H727 | 0.964 | 1.07 | 0.941 | 0.82 | 0.57 |
| RERF-LC-KJ | 1.05 | 1.01 | 1.01 | 0.859 | 0.896 |
| NCI-H2023 | 0.982 | 0.89 | 0.705 | 0.304 | 0.167 |
| NCI-H322M | 0.766 | 0.842 | 0.863 | 0.684 | 0.408 |
| NCI-H1666 | 1.02 | 1.04 | 1.02 | 0.981 | 0.875 |
| NCI-H1648 | 0.926 | 0.958 | 0.669 | 0.749 | 0.83 |
| NCI-H2087 | 1.15 | 1.31 | 1.02 | 0.948 | 0.898 |
| LU99A | 0.952 | 0.985 | 0.901 | 0.949 | 0.926 |
| HCC-366 | 1.04 | 1.04 | 0.984 | 1.06 | 0.944 |
| EKVX | 1.04 | 1.01 | 1.07 | 0.862 | 0.929 |
| NCI-H522 | 0.927 | 0.986 | 0.879 | 0.828 | 1.02 |
| NCI-H1755 | 1.07 | 1.06 | 1 | 0.887 | 0.882 |
| NCI-H647 | 0.937 | 1.07 | 0.972 | 0.769 | 0.417 |
| LC-2-ad | 1.02 | 1.05 | 1.02 | 0.899 | 1.04 |
| NCI-H1793 | 1.07 | 1.12 | 0.927 | 0.91 | 0.786 |
| HCC-827 | 0.971 | 1.08 | 1.07 | 1.12 | 0.945 |
| HCC-78 | 1 | 1.04 | 1.09 | 0.957 | 0.749 |
| NCI-H2085 | 0.996 | 1.12 | 1.04 | 0.932 | 0.853 |
| PC-14 | 1.04 | 1.01 | 1.01 | 0.707 | 0.425 |
| NCI-H2342 | 0.974 | 1.23 | 1.05 | 0.947 | 0.91 |
| A-427 | 1.04 | 0.919 | 1.01 | 0.784 | 0.607 |
| H3255 | 1.02 | 0.935 | 1.03 | 0.974 | 0.57 |
| HCC-44 | 0.918 | 1.06 | 1.01 | 0.994 | 0.953 |
| NCI-H1734 | 0.916 | 1.1 | 0.963 | 0.78 | 0.793 |

| Cell Line | relative viability (0.05 µM) | relative viability (0.1581 µM) | relative viability (0.5 µM) | relative viability (1.581 µM) | relative viability (5 µM) |
| --- | --- | --- | --- | --- | --- |
| NCI-H2228 | 1.08 | 1.1 | 0.927 | 0.6 | 0.554 |
| ABC-1 | 0.938 | 0.988 | 0.758 | 0.566 | 0.455 |
| COR-L23 | 1.08 | 1.26 | 1.11 | 0.803 | 0.45 |
| NCI-H661 | 1.01 | 0.977 | 1.03 | 1.01 | 0.772 |
| NCI-H1993 | 0.846 | 0.942 | 0.955 | 0.716 | 0.794 |
| NCI-H1437 | 1.02 | 1.11 | 1.06 | 0.847 | 0.832 |
| UMC-11 | 1.08 | 0.873 | 0.856 | 0.788 | 0.565 |
| 201T | 0.972 | 1.01 | 0.996 | 0.86 | 0.746 |
| NCI-H358 | 0.988 | 1.1 | 0.877 | 0.771 | 0.749 |
| ChaGo-K-1 | 0.99 | 1.08 | 1.09 | 0.89 | 0.997 |
| NCI-H1650 | 0.862 | 1.08 | 1.12 | 0.707 | 0.494 |
| LOU-NH91 | 0.949 | 0.985 | 0.937 | 0.952 | 0.811 |
| HOP-62 | 1.07 | 1.16 | 0.956 | 1.01 | 0.812 |
| NCI-H1915 | 0.984 | 0.998 | 0.971 | 0.868 | 0.969 |
| NCI-H3122 | 1.03 | 1.03 | 1.03 | 1.06 | 1.1 |
| NCI-H1651 | 1.01 | 0.993 | 0.917 | 0.783 | 0.503 |
| EBC-1 | 1.12 | 1.16 | 0.882 | 0.822 | 0.869 |
| NCI-H838 | 0.955 | 1.06 | 0.882 | 0.885 | 0.878 |
| NCI-H596 | 0.985 | 1.15 | 0.887 | 0.916 | 0.766 |
| SK-LU-1 | 1.18 | 0.696 | 0.809 | 0.432 | 0.268 |
| NCI-H441 | 1.28 | 1.26 | 1.15 | 0.862 | 1.31 |
| NCI-H650 | 0.994 | 0.875 | 1.03 | 0.844 | 0.715 |
| SK-MES-1 | 1.09 | 1.08 | 0.979 | 0.606 | 0.34 |
| NCI-H1792 | 0.869 | 1.08 | 0.96 | 0.575 | 0.835 |
| NCI-H1355 | 0.973 | 1.07 | 1.04 | 0.919 | 0.883 |
| SW 1573 | 0.93 | 1.07 | 1.12 | 0.924 | 0.894 |

| Cell Line | relative viability (0.05 µM) | relative viability (0.1581 µM) | relative viability (0.5 µM) | relative viability (1.581 µM) | relative viability (5 µM) |
| --- | --- | --- | --- | --- | --- |
| A549 | 1.01 | 1.07 | 0.946 | 0.847 | 0.813 |
| NCI-H2347 | 0.987 | 1.09 | 1.2 | 0.953 | 0.853 |
| LCLC-97TM1 | 0.982 | 1.11 | 1.1 | 0.969 | 0.925 |
| EMC-BAC-2 | 0.917 | 1.03 | 0.976 | 0.949 | 0.827 |
| NCI-H1975 | 1.03 | 0.922 | 0.908 | 0.803 | 0.847 |
| BEN | 1.05 | 0.902 | 0.904 | 0.972 | 0.834 |
| NCI-H1703 | 0.925 | 0.664 | 0.529 | 0.347 | 0.159 |
| NCI-H23 | 0.91 | 1.02 | 0.925 | 0.573 | 0.272 |
| NCI-H520 | 0.897 | 0.998 | 0.899 | 0.904 | 0.717 |
| CAL-12T | 1.03 | 1.06 | 1.08 | 0.68 | 0.265 |
| EPLC-272H | 1 | 0.974 | 0.896 | 0.628 | 0.379 |
| LCLC-103H | 1.03 | 0.986 | 1.05 | 0.909 | 1.03 |
| NCI-H2405 | 0.935 | 1.01 | 0.959 | 0.983 | 0.769 |
| HCC-15 | 1.07 | 1.08 | 1.06 | 0.928 | 0.936 |
| PC-3 [JPC-3] | 0.957 | 1.01 | 1.01 | 1.02 | 1.03 |
| NCI-H1944 | 0.947 | 1.07 | 0.929 | 0.713 | 0.481 |
| HARA | 0.975 | 1.03 | 1.31 | 0.761 | 0.301 |
| NCI-H1563 | 0.941 | 0.878 | 0.966 | 0.942 | 0.873 |
| NCI-H2126 | 0.986 | 1.07 | 1 | 0.899 | 0.95 |
| LXF-289 | 1.03 | 1.14 | 1.03 | 1.01 | 1.06 |
| NCI-H460 | 0.946 | 1.1 | 0.993 | 0.952 | 0.811 |
| NCI-H1395 | 0.813 | 0.713 | 0.926 | 0.548 | 0.45 |
| NCI-H2170 | 0.991 | 1.03 | 0.93 | 1.01 | 1.07 |
| NCI-H2009 | 1.03 | 1.05 | 0.981 | 0.931 | 0.858 |
